{
  "source": "paper PMC7031696",
  "about": "(Cell chemical biology, 2019)",
  "test_system": "3D7-MR4 trophozoite parasite-infected RBCs",
  "experiment": "Metabolomic profiling (hydrophilic metabolite changes, UHPLC-MS)",
  "type": "cell-based, Plasmodium falciparum",
  "data": [
    {"substance": "Ferroquine [reference compound]", "values": [
      {"measurement": "changes within the set of metabolites detected (low fold change group)", "setting": "10 × IC50^72h, 2.5 hr, trophozoites", "result": "did not induce major changes"},
      {"measurement": "Log2(fold changes) 1_3-Bisphosphoglyceric acid", "setting": "metabolite 1_3-Bisphosphoglyceric acid, log2 fold change", "result": 0.0000},
      {"measurement": "Log2(fold changes) 2-Hydroxy-2-methylbutanedioic acid", "setting": "metabolite 2-Hydroxy-2-methylbutanedioic acid, log2 fold change", "result": -0.0247},
      {"measurement": "Log2(fold changes) 2-Isopropylmalic acid", "setting": "metabolite 2-Isopropylmalic acid, log2 fold change", "result": 0.0000},
      {"measurement": "Log2(fold changes) 2-dehydro-D-gluconate", "setting": "metabolite 2-dehydro-D-gluconate, log2 fold change", "result": -0.3147},
      {"measurement": "Log2(fold changes) 2-oxo-4-methylthiobutanoate", "setting": "metabolite 2-oxo-4-methylthiobutanoate, log2 fold change", "result": 0.0000},
      {"measurement": "Log2(fold changes) 2_3-Diphosphoglyceric acid", "setting": "metabolite 2_3-Diphosphoglyceric acid, log2 fold change", "result": -0.0833},
      {"measurement": "Log2(fold changes) 3-phosphoglycerate", "setting": "metabolite 3-phosphoglycerate, log2 fold change", "result": 0.2090},
      {"measurement": "Log2(fold changes) 3-phosphoserine", "setting": "metabolite 3-phosphoserine, log2 fold change", "result": 0.0000},
      {"measurement": "Log2(fold changes) 4-Pyridoxic acid", "setting": "metabolite 4-Pyridoxic acid, log2 fold change", "result": 0.0751},
      {"measurement": "Log2(fold changes) 4-aminobutyrate", "setting": "metabolite 4-aminobutyrate, log2 fold change", "result": 0.0759},
      {"measurement": "Log2(fold changes) 4-phosphopantetheine", "setting": "metabolite 4-phosphopantetheine, log2 fold change", "result": 0.0000},
      {"measurement": "Log2(fold changes) 4-phosphopantothenate", "setting": "metabolite 4-phosphopantothenate, log2 fold change", "result": 0.0213},
      {"measurement": "Log2(fold changes) 5-aminopentanoic acid", "setting": "metabolite 5-aminopentanoic acid, log2 fold change", "result": 0.0000},
      {"measurement": "Log2(fold changes) 5-methyl-THF", "setting": "metabolite 5-methyl-THF, log2 fold change", "result": 0.0000},
      {"measurement": "Log2(fold changes) 5-phosphoribosyl-1-pyrophosphate", "setting": "metabolite 5-phosphoribosyl-1-pyrophosphate, log2 fold change", "result": 0.0000},
      {"measurement": "Log2(fold changes) 6-phospho-D-gluconate", "setting": "metabolite 6-phospho-D-gluconate, log2 fold change", "result": 0.0000},
      {"measurement": "Log2(fold changes) ADP-D-glucose", "setting": "metabolite ADP-D-glucose, log2 fold change", "result": 0.0625},
      {"measurement": "Log2(fold changes) Acetyl-glycine", "setting": "metabolite Acetyl-glycine, log2 fold change", "result": 0.0000},
      {"measurement": "Log2(fold changes) Acetyllysine", "setting": "metabolite Acetyllysine, log2 fold change", "result": 0.2432},
      {"measurement": "Log2(fold changes) Aminoadipic acid", "setting": "metabolite Aminoadipic acid, log2 fold change", "result": 0.0000},
      {"measurement": "Log2(fold changes) CDP", "setting": "metabolite CDP, log2 fold change", "result": -0.2924},
      {"measurement": "Log2(fold changes) CDP-choline", "setting": "metabolite CDP-choline, log2 fold change", "result": 0.0000},
      {"measurement": "Log2(fold changes) CDP-ethanolamine", "setting": "metabolite CDP-ethanolamine, log2 fold change", "result": 0.1904},
      {"measurement": "Log2(fold change) of CMP", "setting": "metabolite CMP", "result": -0.0276},
      {"measurement": "Log2(fold change) of CTP", "setting": "metabolite CTP", "result": 0.0362},
      {"measurement": "Log2(fold changes) Citraconic acid", "setting": "metabolite Citraconic acid, log2 fold change", "result": 0.0302},
      {"measurement": "Log2(fold change) of D-glucarate", "setting": "metabolite D-glucarate", "result": 0.4691},
      {"measurement": "Log2(fold change) of D-gluconate", "setting": "metabolite D-gluconate", "result": 0.0000},
      {"measurement": "Log2(fold change) of D-glucosamine-1/6-phosphate", "setting": "metabolite D-glucosamine-1/6-phosphate", "result": 0.0000},
      {"measurement": "Log2(fold change) of D-sedoheptulose-1/7-phosphate", "setting": "metabolite D-sedoheptulose-1/7-phosphate", "result": -0.0036},
      {"measurement": "Log2(fold change) of DL-Pipecolic Acid", "setting": "metabolite DL-Pipecolic Acid", "result": -0.1035},
      {"measurement": "Log2(fold change) of DLH", "setting": "metabolite DLH", "result": 0.0094},
      {"measurement": "Log2(fold change) of DLS", "setting": "metabolite DLS", "result": 0.0686},
      {"measurement": "Log2(fold change) of Decanoyl-CoA", "setting": "metabolite Decanoyl-CoA", "result": 0.0000},
      {"measurement": "Log2(fold change) of EV", "setting": "metabolite EV", "result": 0.0000},
      {"measurement": "Log2(fold change) of FAD", "setting": "metabolite FAD", "result": 0.0236},
      {"measurement": "Log2(fold change) of FMN", "setting": "metabolite FMN", "result": 0.1126},
      {"measurement": "Log2(fold change) of G3P/DHAP", "setting": "metabolite G3P/DHAP", "result": 0.0000},
      {"measurement": "Log2(fold change) of GDP", "setting": "metabolite GDP", "result": -0.2435},
      {"measurement": "Log2(fold change) GMP", "setting": "metabolite GMP", "result": -0.0369},
      {"measurement": "Log2(fold change) GTP", "setting": "metabolite GTP", "result": 0.0612},
      {"measurement": "Log2(fold change) HVDD", "setting": "metabolite HVDD", "result": 0.0000},
      {"measurement": "Log2(fold change) Hexose", "setting": "metabolite Hexose", "result": 0.9215},
      {"measurement": "Log2(fold change) Hydroxyisocaproic acid", "setting": "metabolite Hydroxyisocaproic acid", "result": 0.0000},
      {"measurement": "Log2(fold change) IDP", "setting": "metabolite IDP", "result": 0.0000},
      {"measurement": "Log2(fold change) IMP", "setting": "metabolite IMP", "result": -0.0158},
      {"measurement": "Log2(fold change) Inositol", "setting": "metabolite Inositol", "result": 0.0000},
      {"measurement": "Log2(fold change) Isopentyl-PP", "setting": "metabolite Isopentyl-PP", "result": 0.0768},
      {"measurement": "Log2(fold change) L-arginino-succinate", "setting": "metabolite L-arginino-succinate", "result": 0.0000},
      {"measurement": "Log2(fold change) LD", "setting": "metabolite LD", "result": 0.1184},
      {"measurement": "Log2(fold change) Myristoyl/tetradecanoyl-CoA", "setting": "metabolite Myristoyl/tetradecanoyl-CoA", "result": 0.0000},
      {"measurement": "Log2(fold change) N-Acetyl-L-alanine", "setting": "metabolite N-Acetyl-L-alanine", "result": -0.1094},
      {"measurement": "Log2(fold change) N-acetyl-L-ornithine", "setting": "metabolite N-acetyl-L-ornithine", "result": 0.3046},
      {"measurement": "Log2(fold change) N-acetyl-glucosamine-1/6-phosphate", "setting": "metabolite N-acetyl-glucosamine-1/6-phosphate", "result": -0.0561},
      {"measurement": "Log2(fold change) N-acetyl-glutamate", "setting": "metabolite N-acetyl-glutamate", "result": 0.1101},
      {"measurement": "Log2(fold change) N-acetyl-glutamine", "setting": "metabolite N-acetyl-glutamine", "result": 0.0004},
      {"measurement": "Log2(fold change) N-carbamoyl-L-aspartate", "setting": "metabolite N-carbamoyl-L-aspartate", "result": 0.0860},
      {"measurement": "Log2(fold change) NAD+", "setting": "metabolite NAD+", "result": 0.0993},
      {"measurement": "Log2(fold change) NADH", "setting": "metabolite NADH", "result": 0.0000},
      {"measurement": "Log2(fold change) NADP+", "setting": "metabolite NADP+", "result": -0.0805},
      {"measurement": "Log2(fold change) NADPH", "setting": "metabolite NADPH", "result": 0.9289},
      {"measurement": "Log2(fold change) O-acetyl-L-serine", "setting": "metabolite O-acetyl-L-serine", "result": 0.0000},
      {"measurement": "Log2(fold change) Octoluse 8/1P", "setting": "metabolite Octoluse 8/1P", "result": 0.1026},
      {"measurement": "Log2(fold change) Octoluse Bisphosphate", "setting": "metabolite Octoluse Bisphosphate", "result": 0.0231},
      {"measurement": "Log2(fold change) PD", "setting": "metabolite PD", "result": 0.1011},
      {"measurement": "Log2(fold change) PE", "setting": "metabolite PE", "result": 0.0655},
      {"measurement": "Log2(fold change) PEE", "setting": "metabolite PEE", "result": 0.0431},
      {"measurement": "Log2(fold change) PEEK", "setting": "metabolite PEEK", "result": 0.3448},
      {"measurement": "Log2(fold change) PVNF", "setting": "metabolite PVNF", "result": 0.0000},
      {"measurement": "Log2(fold change) Pyroglutamic acid", "setting": "metabolite Pyroglutamic acid", "result": 0.1702},
      {"measurement": "Log2(fold change) Pyrophosphate", "setting": "metabolite Pyrophosphate", "result": 0.0000},
      {"measurement": "Log2(fold change) Ribose-5-phosphate", "setting": "metabolite Ribose-5-phosphate", "result": 0.0000},
      {"measurement": "Log2(fold change) S-adenosyl-L-homocysteine", "setting": "metabolite S-adenosyl-L-homocysteine", "result": 0.0736},
      {"measurement": "Log2(fold change) S-adenosyl-L-methioninamine", "setting": "metabolite S-adenosyl-L-methioninamine", "result": 0.0000},
      {"measurement": "Log2(fold change) S-adenosyl-L-methionine", "setting": "metabolite S-adenosyl-L-methionine", "result": 0.0000},
      {"measurement": "Log2(fold change) S-methyl-5'-thioadenosine", "setting": "metabolite S-methyl-5'-thioadenosine", "result": 0.0000},
      {"measurement": "Log2(fold change) SD", "setting": "metabolite SD", "result": 0.1281},
      {"measurement": "Log2(fold change) SDL", "setting": "metabolite SDL", "result": 0.2089},
      {"measurement": "Log2(fold change) SID", "setting": "metabolite SID", "result": 0.0000},
      {"measurement": "Log2(fold change) Sedoheptulose bisphosphate", "setting": "metabolite Sedoheptulose bisphosphate", "result": 0.0573},
      {"measurement": "Log2(fold change) Thiamine pyrophosphate", "setting": "metabolite Thiamine pyrophosphate", "result": 0.0000},
      {"measurement": "Log2(fold changes) UDP-D-glucose", "setting": "metabolite UDP-D-glucose, log2 fold change", "result": 0.0465},
      {"measurement": "Log2(fold changes) UDP-D-glucuronate", "setting": "metabolite UDP-D-glucuronate, log2 fold change", "result": 0.0272},
      {"measurement": "Log2(fold changes) UDP-N-acetyl-glucosamine", "setting": "metabolite UDP-N-acetyl-glucosamine, log2 fold change", "result": 0.0319},
      {"measurement": "Log2(fold changes) UDP", "setting": "metabolite UDP, log2 fold change", "result": -0.2525},
      {"measurement": "Log2(fold changes) UMP", "setting": "metabolite UMP, log2 fold change", "result": -0.0522},
      {"measurement": "Log2(fold changes) UTP", "setting": "metabolite UTP, log2 fold change", "result": 0.1015},
      {"measurement": "Log2(fold changes) VD", "setting": "metabolite VD, log2 fold change", "result": 0.1916},
      {"measurement": "Log2(fold changes) Xanthurenic acid", "setting": "metabolite Xanthurenic acid, log2 fold change", "result": 0.0000},
      {"measurement": "Log2(fold changes) a-ketoglutarate", "setting": "metabolite a-ketoglutarate, log2 fold change", "result": -0.2164},
      {"measurement": "Log2(fold changes) acetyl-CoA", "setting": "metabolite acetyl-CoA, log2 fold change", "result": 0.0673},
      {"measurement": "Log2(fold changes) acetyl-aspartate", "setting": "metabolite acetyl-aspartate, log2 fold change", "result": -0.0096},
      {"measurement": "Log2(fold changes) acetylphosphate", "setting": "metabolite acetylphosphate, log2 fold change", "result": 0.0000},
      {"measurement": "Log2(fold changes) aconitate", "setting": "metabolite aconitate, log2 fold change", "result": 0.0000},
      {"measurement": "Log2(fold changes) adenine", "setting": "metabolite adenine, log2 fold change", "result": 0.0000},
      {"measurement": "Log2(fold changes) adenosine 5'-phosphosulfate", "setting": "metabolite adenosine 5'-phosphosulfate, log2 fold change", "result": -0.1961}
    ]}
  ]
}
